Laboratory results: patent US11618747B2, “LXR modulators with bicyclic core moiety” (OrsoBio, Inc., priority 2018, dated 2023)

Tests used:
[1] = biological target: T1, LXRβ ligand-binding domain (Homo sapiens, UniProt P55055, DUP175-175); assay: TR-FRETβ activity assay (NCoA3 coactivator peptide recruitment); type: biochemical; details: TR-FRET, 1 μM 24(S)-25-epoxycholesterol prestimulation; read-out: FRETβ (EC50 range)
T1 construct: amino acids 156-461; NP009052; made in house; host or cells: E. coli
T1 sequence (P55055 with tags, fused parts or gaps DUP175-175 limits assumed): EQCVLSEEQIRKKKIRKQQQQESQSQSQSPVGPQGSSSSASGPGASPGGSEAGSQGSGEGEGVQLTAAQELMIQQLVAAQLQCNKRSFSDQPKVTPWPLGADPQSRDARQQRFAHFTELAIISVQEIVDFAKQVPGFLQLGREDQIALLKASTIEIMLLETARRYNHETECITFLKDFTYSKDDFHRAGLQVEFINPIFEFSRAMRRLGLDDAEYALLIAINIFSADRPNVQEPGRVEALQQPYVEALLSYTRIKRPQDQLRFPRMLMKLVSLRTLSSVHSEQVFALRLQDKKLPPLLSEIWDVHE
Method in brief: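 Inverse agonism assessed by loss of coactivator recruitment, read as TR-FRET 665/615 nm after 1 h equilibration at 4 °C, in triplicate. Ten-point titration from 50 μM to 0.002 μM against LXRβ LBD (76 nM, GST fusion) prestimulated with 1 μM 24(S)-25-epoxycholesterol, with 400 nM NCoA3 peptide, pH 6.8. Sulfonyl acetic acids kept as 20 mM DMSO stocks with 100 mM TFA.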

full length (FL) LXRα = biological target: T2, full length (FL) LXRα (Homo sapiens, UniProt Q13133); assay: LXR Gal4 reporter transient transfection assay (FL-M2H Gal4α); type: cell-based; details: HEK293 cells, full length LXRα; read-out: FL-M2H Gal4α (EC50 range)
T2 construct: the full length (FL) proteins of LXRα (amino acids 1-447); NP005684; expressed in transfected cells; host or cells: HEK293
T2 sequence (Q13133 1-447): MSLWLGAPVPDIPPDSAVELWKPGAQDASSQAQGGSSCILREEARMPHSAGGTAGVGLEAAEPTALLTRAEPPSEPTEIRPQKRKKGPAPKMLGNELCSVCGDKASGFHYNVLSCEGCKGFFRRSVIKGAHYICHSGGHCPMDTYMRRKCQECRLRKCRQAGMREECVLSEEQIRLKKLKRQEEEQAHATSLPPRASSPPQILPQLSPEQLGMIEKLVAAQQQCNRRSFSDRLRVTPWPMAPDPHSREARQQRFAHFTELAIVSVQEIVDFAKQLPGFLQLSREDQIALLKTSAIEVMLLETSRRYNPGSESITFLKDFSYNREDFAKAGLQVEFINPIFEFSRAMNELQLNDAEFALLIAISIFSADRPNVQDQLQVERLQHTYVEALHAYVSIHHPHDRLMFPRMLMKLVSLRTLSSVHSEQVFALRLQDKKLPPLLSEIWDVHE
Method in brief: (§1)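 Test compounds act for 16 h on transiently transfected HEK293 cells carrying AD-LXR and GAL4 BD-cofactor (SRC1 or NCoR) fusions. Firefly luciferase under GAL4 elements is quantified and corrected with Renilla luciferase for transfection efficiency.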

full length (FL) LXRβ = biological target: T3, full length (FL) LXRβ (Homo sapiens, UniProt P55055, DUP175-175); assay: LXR Gal4 reporter transient transfection assay (FL-M2H Gal4β); type: cell-based; details: HEK293 cells, full length LXRβ; read-out: FL-M2H Gal4β (EC50 range)
T3 construct: the full length (FL) proteins of LXRα (amino acids 1-447); NP005684; NP009052; expressed in transfected cells; host or cells: HEK293
T3 sequence (P55055 with tags, fused parts or gaps DUP175-175): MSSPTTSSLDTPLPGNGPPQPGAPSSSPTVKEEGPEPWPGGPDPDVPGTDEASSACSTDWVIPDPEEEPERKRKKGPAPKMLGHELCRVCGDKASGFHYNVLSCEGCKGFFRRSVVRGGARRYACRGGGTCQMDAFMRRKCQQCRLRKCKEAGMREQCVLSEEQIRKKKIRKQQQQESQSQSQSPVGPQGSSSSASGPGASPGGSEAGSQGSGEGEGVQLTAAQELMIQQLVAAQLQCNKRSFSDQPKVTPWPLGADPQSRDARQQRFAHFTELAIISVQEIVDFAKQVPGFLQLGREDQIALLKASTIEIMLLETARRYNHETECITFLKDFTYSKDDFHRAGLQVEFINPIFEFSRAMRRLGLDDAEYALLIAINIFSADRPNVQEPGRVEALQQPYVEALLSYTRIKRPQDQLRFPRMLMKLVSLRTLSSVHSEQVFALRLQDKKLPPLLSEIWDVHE
Method in brief: as §1

Compound | EC50 [1] [nM] | EC50 (full length (FL) LXRα) [nM] | EC50 (full length (FL) LXRβ) [nM]
N#Cc1ccccc1-c1c(-c2cccc(-c3ccc(C(=O)O)cc3Cl)c2)n(S(=O)(=O)c2ccc(C(F)F)cc2)c2cccnc12 [8/7] | 100 to 1000 | 100 to 1000 | < 100
N#Cc1sccc1-c1c(-c2cccc(-c3ccc(C(=O)NCCS(=O)(=O)O)cc3Cl)c2)n(S(=O)(=O)c2ccc(C(F)F)cc2)c2ccc(F)cc12 [10/3] | < 100 | < 100 | < 100
O=C(NCCS(=O)(=O)O)C1CC1c1cccc(-c2c(-c3c(Cl)cccc3Cl)c3cc(F)ccc3n2S(=O)(=O)c2ccc(C(F)F)cc2)c1 (stereo not drawn) [10/4] | < 100 | 100 to 1000 | < 100
Cc1ccc(S(=O)(=O)n2c(-c3cccc(-c4ccc(C(=O)O)cc4Cl)c3)c(-c3cccc(F)c3C#N)c3cc(F)ccc32)cc1 [11/1] | < 100 | < 100 | < 100
Cc1ccc(S(=O)(=O)n2c(-c3cccc(-c4ccc(C(=O)O)cc4Cl)c3)c(-c3cccc(C)c3C#N)c3cc(F)ccc32)cc1 [11/2] | < 100 | < 100 | < 100
COc1cccc(-c2c(-c3cccc(-c4ccc(C(=O)O)cc4Cl)c3)n(S(=O)(=O)c3ccc(C)cc3)c3ccc(F)cc23)c1C#N [11/3] | < 100 | < 100 | < 100
Cc1ccc(S(=O)(=O)n2c(-c3cccc(-c4ccc(C(=O)O)cc4Cl)c3)c(-c3ccc(C)cc3C#N)c3cc(F)ccc32)cc1 [11/4] | 100 to 1000 | < 100 | < 100
Cc1ccc(S(=O)(=O)n2c(-c3cccc(-c4ccc(C(=O)O)cc4Cl)c3)c(-c3cc(C)ccc3C#N)c3cc(F)ccc32)cc1 [11/5] | < 100 | < 100 | < 100
Cc1ccc(S(=O)(=O)n2c(-c3cccc(-c4ccc(C(=O)O)cc4Cl)c3)c(-c3c(C)cccc3C#N)c3cc(F)ccc32)cc1 [11/6] | < 100 | < 100 | < 100
N#Cc1sccc1-c1c(-c2cccc(-c3cc(F)c(C(=O)O)cc3Cl)c2)n(S(=O)(=O)c2ccc(CF)cc2)c2ccc(F)cc12 [11/7] | < 100 | < 100 | < 100
N#Cc1sccc1-c1c(-c2cccc(-c3cc(F)c(C(=O)O)cc3Cl)c2)n(S(=O)(=O)c2ccc(C(F)F)cc2)c2ccc(F)cc12 [11/8] | < 100 | < 100 | < 100
N#Cc1scnc1-c1c(-c2cccc(-c3cc(F)c(C(=O)O)cc3Cl)c2)n(S(=O)(=O)c2ccc(C(F)F)cc2)c2ccc(F)cc12 [11/9] | < 100 | < 100 | < 100
N#Cc1ccncc1-c1c(-c2cccc(-c3cc(F)c(C(=O)O)cc3Cl)c2)n(S(=O)(=O)c2ccc(C(F)F)cc2)c2ccc(F)cc12 [11/10] | < 100 | < 100 | < 100
Cc1cccc(C)c1-c1c(-c2cccc(-c3ccc(C(=O)O)cc3Cl)c2)n(S(=O)(=O)c2ccc(C(F)F)cc2)c2ccc(F)cc12 [11/14] | < 100 | < 100 | < 100
O=C(O)c1ccc(-c2cccc(-c3c(-c4c(C(F)F)cccc4C(F)F)c4cc(F)ccc4n3S(=O)(=O)c3ccc(C(F)F)cc3)c2)c(Cl)c1 [11/15] | < 100 | < 100 | < 100
N#Cc1sccc1-c1c(-c2cccc(-c3ccc(C(=O)O)cc3Cl)c2)n(S(=O)(=O)c2ccc(F)cc2)c2ccc(F)cc12 [11/18] | 100 to 1000 | < 100 | < 100
Cc1ccc(S(=O)(=O)n2c(-c3cccc(-c4ccc(C(=O)O)cc4Cl)c3)c(-c3ccsc3C#N)c3cc(F)ccc32)cc1F [11/19] | 100 to 1000 | < 100 | < 100
